Measurements: ChEMBL document CHEMBL2034954, “Synthesis and antimycobacterial activity of novel 1,3-dimethylisocyanurate derivatives” (Eur J Med Chem, 2012)
In brackets after ≈: the same amount, converted by molar mass. Activity calls are given as the source filed them. The calls are words filed in the database; no cut-off is given here.

How the values were obtained:
[1] = tested on: Mycobacterium tuberculosis; experiment: Bacteriostatic activity against Mycobacterium tuberculosis H37Rv at 0.1 ug/mL assessed as growth index after 10 days by radiometric growth assay (reference value: 210 growth index); format: functional
Candida albicans = experiment: Antifungal activity against Candida albicans 855-653 up to 1 ug/mL after 14 days by broth dilution method; format: functional, organism-based
Mus musculus = experiment: Acute toxicity in white outbred mouse assessed as mortality at 3000 mg/kg, po after 14 days; format: organism-based; design: dose 3000 mg/kg, route oral; settings: in vivo, 336 h
[2] = tested on: Mycobacterium tuberculosis; experiment: Bacteriostatic activity against Mycobacterium tuberculosis H37Rv at 0.05 ug/mL assessed as growth index after 3 days by radiometric growth assay (reference value: 210 growth index); format: functional
[3] = tested on: Mycobacterium tuberculosis; experiment: Bacteriostatic activity against Mycobacterium tuberculosis H37Rv at 0.1 ug/mL assessed as growth index after 7 days by radiometric growth assay (reference value: 210 growth index); format: functional
[4] = tested on: Mycobacterium tuberculosis; experiment: Antitubercular activity against Mycobacterium tuberculosis H37Rv at 10 ug/mL by radiometric growth assay; format: functional, organism-based
[5] = tested on: Mycobacterium tuberculosis; experiment: Antitubercular activity against Mycobacterium tuberculosis H37Rv after […] by radiometric growth assay; format: functional
Rattus norvegicus = experiment: Acute toxicity in rat assessed as mortality at 3000 mg/kg, po after 14 days; format: organism-based; design: dose 3000 mg/kg, route oral; settings: in vivo, 336 h
[6] = tested on: Mycobacterium tuberculosis; experiment: Antitubercular activity against Mycobacterium tuberculosis H37Rv at 1 ug/mL by radiometric growth assay; format: functional, organism-based
[7] = tested on: Mycobacterium tuberculosis; experiment: Bacteriostatic activity against Mycobacterium tuberculosis H37Rv at 0.05 ug/mL assessed as growth index after 5 days by radiometric growth assay (reference value: 210 growth index); format: functional
Escherichia coli = experiment: Antibacterial activity against Escherichia coli F-50 up to 1 ug/mL after 5 days by broth dilution method; format: functional, organism-based
Bacillus cereus = experiment: Antibacterial activity against Bacillus cereus 8035 up to 1 ug/mL after 5 days by broth dilution method; format: functional, organism-based
[8] = tested on: Mycobacterium tuberculosis; experiment: Bacteriostatic activity against Mycobacterium tuberculosis H37Rv at 0.1 ug/mL assessed as growth index after 5 days by radiometric growth assay (reference value: 210 growth index); format: functional
[9] = tested on: Mycobacterium tuberculosis; experiment: Bacteriostatic activity against Mycobacterium tuberculosis H37Rv at 0.1 ug/mL assessed as growth index after 3 days by radiometric growth assay (reference value: 210 growth index); format: functional
[10] = tested on: Trichophyton mentagrophytes; experiment: Antifungal activity against Trichophyton mentagrophytes 1773 up to 1 ug/mL after 14 days by broth dilution method; format: functional, organism-based
[11] = tested on: Mycobacterium tuberculosis; experiment: Bacteriostatic activity against Mycobacterium tuberculosis H37Rv at 0.1 ug/mL assessed as growth index after 4 days by radiometric growth assay (reference value: 210 growth index); format: functional
[12] = tested on: Mycobacterium tuberculosis; experiment: Bacteriostatic activity against Mycobacterium tuberculosis H37Rv at 0.05 ug/mL assessed as growth index after 7 days by radiometric growth assay (reference value: 210 growth index); format: functional
Aspergillus niger = experiment: Antifungal activity against Aspergillus niger BKMF-1119 up to 1 ug/mL after 14 days by broth dilution method; format: functional, organism-based
[13] = tested on: Mycobacterium tuberculosis; experiment: Bacteriostatic activity against Mycobacterium tuberculosis H37Rv at 0.05 ug/mL assessed as growth index after 4 days by radiometric growth assay (reference value: 210 growth index); format: functional
Staphylococcus aureus = experiment: Antibacterial activity against Staphylococcus aureus 209p up to 1 ug/mL after 5 days by broth dilution method; format: functional, organism-based

Cn1c(=O)n(C)c(=O)n(CCCCC[S+]([O-])CC(=O)NN)c1=O (stereo not given)
Growth_index [1]: 2 | Activity (Candida albicans): inactive | Activity (Mus musculus): Non-toxic | Growth_index [2]: 15 | Growth_index [3]: 2 | Activity [4]: Active | MIC [5]: 0.05 µg/mL (≈ 0.144 µM) | Activity (Rattus norvegicus): Non-toxic | Activity [6]: Active | Growth_index [7]: 32 | Activity (Escherichia coli): inactive | Activity (Bacillus cereus): inactive | Growth_index [8]: 1 | Growth_index [9]: 0 | Activity [10]: inactive | Growth_index [11]: 0 | Growth_index [12]: >90 | Activity (Aspergillus niger): inactive | Growth_index [13]: 27 | Activity (Staphylococcus aureus): inactive
